US9782377B2, “Composition for normalization of infradian rhythm” (SUNTORY HOLDINGS LIMITED, priority 2003, dated 2017)

Tested on: male Fischer rats
Assay: Days until circadian rhythm synchronized after 6-hour backward/forward phase change of light-and-dark cycle
Assay type: in vivo, rat
Conditions: for days required for synchronization, backward movement of the phase: 6 hours backward; for days required for synchronization, forward movement of the phase: 6 hours forward

Structure (SMILES): CCCCC/C=C\C/C=C\C/C=C\C/C=C\CCCC(=O)OC(COC(=O)CCCCCCC)COC(=O)CCCCCCC [8A8, 1,3-capryloyl-2-arachidonoyl-glycerol]
- time (days) required for synchronization (overall conclusion on ingestion of 8A8 versus control feed): shortened
- days required for synchronization, backward movement of the phase (rats of 2 months age, 8A8-compounded feed (control feed group 3.7 days)): 4.1 days
- days required for synchronization, forward movement of the phase (rats of 2 months age, 8A8-compounded feed (control feed group 9.8 days)): 9.43 days
- days required for synchronization, backward movement of the phase (rats of 18 months age, 8A8-compounded feed (control feed group 7.28 days)): 5.72 days
- days required for synchronization, forward movement of the phase (rats of 18 months age, 8A8-compounded feed (control feed group 5.63 days)): 3.32 days
